Reference: patent US12655116B2, “Substituted isophthalic acid diamides” (Bayer Aktiengesellschaft, priority 2020, dated 2026)

Tests used:
ABUTH [1] = assay: Pre-emergence herbicidal action against ABUTH; assay type: in vivo, Abutilon theophrasti
In short: (§1)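 Sandy loam pots, seeds covered with soil, then surface-treated with WP or EC formulations at 600–800 l/ha water plus 0.2% wetting agent. Greenhouse, 3 weeks. Percent damage vs untreated controls.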

ALOMY [2] = assay: Pre-emergence herbicidal action against ALOMY; assay type: in vivo, Alopecurus myosuroides; details: pre-emergence
In short: as §1

AMARE [3] = assay: Pre-emergence herbicidal action against AMARE; assay type: in vivo, Amaranthus retroflexus
In short: as §1

AVEFA = assay: Pre-emergence herbicidal action against AVEFA; assay type: in vivo, Avena fatua; details: 80 g/ha, pre-emergence
In short: as §1

ECHCG [4] = assay: Pre-emergence herbicidal action against ECHCG; assay type: in vivo, Echinochloa crus-galli
In short: as §1

LOLRI = assay: Pre-emergence herbicidal action against LOLRI; assay type: in vivo, Lolium rigidum; details: 80 g/ha
In short: as §1

MATIN [5] = assay: Pre-emergence herbicidal action against MATIN; assay type: in vivo, Matricaria inodora
In short: as §1

PHBPU [6] = assay: Pre-emergence herbicidal action against PHBPU; assay type: in vivo, Pharbitis purpurea; details: dosage 80 g/ha
In short: as §1

POLCO = assay: Pre-emergence herbicidal action against POLCO; assay type: in vivo, Polygonum convolvulus
In short: as §1

SETVI [7] = assay: Pre-emergence herbicidal action against SETVI; assay type: in vivo, Setaria viridis
In short: as §1

STEME = assay: Pre-emergence herbicidal action against STEME; assay type: in vivo, Stellaria media
In short: as §1

VERPE [8] = assay: Pre-emergence herbicidal action against VERPE; assay type: in vivo, Veronica persica
In short: as §1

VIOTR [9] = assay: Pre-emergence herbicidal action against VIOTR; assay type: in vivo, Viola tricolor
In short: as §1

DIGSA [10] = assay: Pre-emergence herbicidal action against DIGSA; assay type: in vivo, Digitaria sanguinalis
In short: as §1

ABUTH [11] = assay: Post-emergence herbicidal action against ABUTH; assay type: in vivo, Abutilon theophrasti; details: visual assessment about 3 weeks after treatment vs untreated controls
In short: (§2)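 Visual % rating (0% = as untreated, 100% = dead) ~3 wk after spraying one-leaf-stage plants grown in sandy loam; WP/EC in water at 600–800 l/ha, 0.2% wetting agent.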

AMARE [12] = assay: Post-emergence herbicidal action against AMARE; assay type: in vivo, Amaranthus retroflexus; details: 20 g/ha, visual assessment about 3 weeks after treatment, 100% = plants have died, 0% = like control plants
In short: as §2

ECHCG [13] = assay: Post-emergence herbicidal action against ECHCG; assay type: in vivo, Echinochloa crus-galli; details: dosage 20 g/ha
In short: as §2

MATIN [14] = assay: Post-emergence herbicidal action against MATIN; assay type: in vivo, Matricaria inodora
In short: as §2

PHBPU [15] = assay: Post-emergence herbicidal action against PHBPU; assay type: in vivo, Pharbitis purpurea
In short: as §2

SETVI [16] = assay: Post-emergence herbicidal action against SETVI; assay type: in vivo, Setaria viridis
In short: as §2

VIOTR [17] = assay: Post-emergence herbicidal action against VIOTR; assay type: in vivo, Viola tricolor
In short: as §2

DIGSA [18] = assay: Post-emergence herbicidal action against DIGSA; assay type: in vivo, Digitaria sanguinalis
In short: as §2

ALOMY [19] = assay: Post-emergence herbicidal action against ALOMY; assay type: in vivo, Alopecurus myosuroides; details: Alopecurus myosuroides, 504 h, visual assessment about 3 weeks after treatment vs untreated controls
In short: as §2

VERPE [20] = assay: Post-emergence herbicidal action against VERPE; assay type: in vivo, Veronica persica; details: Veronica persica, 504 h
In short: as §2

[21] = 80 g/ha, scored visually after 3 weeks vs untreated controls (100% = plants have died, 0% = like control plants)
[22] = Tripleurospermum inodorum, 504 h, dosage 20 g/ha
[23] = Setaria viridis, 504 h, dosage 20 g/ha

For `CCNC(=O)c1c(C(F)F)ccc(C(=O)Nc2nnnn2CC)c1C` [Example 2-45], the “Pre-emergence action against ABUTH (herbicidal activity)” value (ABUTH [1]; [21]) was 100%, the “Pre-emergence action against ABUTH (herbicidal activity in percent)” value (ABUTH [1]; dosage 20 g/ha, scored visually after 3 weeks vs untreated controls, 100% = plants have died, 0% = like control plants) was 80% and the “Pre-emergence action against ALOMY (herbicidal activity)” value (ALOMY [2]; [21]) was 90%. For the same compound, the “Pre-emergence action against AMARE in %” value (AMARE [3]; 20 g/ha, scored visually after 3 weeks vs untreated controls, 100% = plants have died, 0% = like control plants) was 100%, the “Pre-emergence action against AMARE in %” value (AMARE [3]; [21]) was 100% and the “Pre-emergence action against AVEFA in %” value (AVEFA) was 100%. The “Pre-emergence action against ECHCG in %” value (ECHCG [4]; 80 g/ha) was 100%, the “Pre-emergence action against LOLRI in %” value (LOLRI) was 80% and the “Pre-emergence action against MATIN in %” value (MATIN [5]; dosage 20 g/ha) was 90%. For the same compound, the “Pre-emergence action against MATIN in %” value (MATIN [5]; dosage 80 g/ha) was 100%, the “Pre-emergence action against PHBPU in %” value (PHBPU [6]) was 80% and the “Pre-emergence action against POLCO in %” value (POLCO; dosage 80 g/ha) was 90%. The “Pre-emergence action against SETVI in %” value (SETVI [7]; dosage 80 g/ha) was 100%, the “Pre-emergence action against STEME in %” value (STEME; dosage 20 g/ha) was 90% and the “Pre-emergence action against STEME in %” value (STEME; dosage 80 g/ha) was 100%. The “Pre-emergence action against VERPE in %” value (VERPE [8]; dosage 80 g/ha) was 90%, the “Pre-emergence action against VIOTR in %” value (VIOTR [9]; dosage 20 g/ha) was 90% and the “Pre-emergence action against VIOTR in %” value (VIOTR [9]; dosage 80 g/ha) was 100%. For the same compound, the “Pre-emergence action against DIGSA in %” value (DIGSA [10]; dosage 20 g/ha) was 90%, the “Pre-emergence action against DIGSA in %” value (DIGSA [10]; dosage 80 g/ha) was 100% and the “Post-emergence action against ABUTH in %” value (ABUTH [11]; dosage 5 g/ha) was 80%. For the same compound, the “Post-emergence action against ABUTH in %” value (ABUTH [11]; dosage 20 g/ha) was 80%, the “Post-emergence action at 20 g/ha against AMARE in %” value (AMARE [12]) was 100% and the “Post-emergence action against ECHCG in %” value (ECHCG [13]) was 80%. The “Post-emergence action against MATIN in %” value (MATIN [14]; dosage 20 g/ha) was 80%, the “Post-emergence action against PHBPU in %” value (PHBPU [15]; dosage 20 g/ha) was 80% and the “Post-emergence action against SETVI in %” value (SETVI [16]; dosage 20 g/ha) was 80%. For the same compound, the “Post-emergence action against VIOTR in %” value (VIOTR [17]; 5 g/ha) was 80%, the “Post-emergence action against VIOTR in %” value (VIOTR [17]; 20 g/ha) was 100% and the “Post-emergence action against DIGSA” value (DIGSA [18]; 20 g/ha) was 80%.

`CCNC(=O)c1c(C(F)(F)C(F)(F)F)ccc(C(=O)Nc2nnnn2C)c1Cl` [Example 1-166] showed a pest or weed control at 80 g/ha (ABUTH [1]; Abutilon theophrasti, 504 h, 80 g/ha, scored visually after 3 weeks vs untreated controls (100% = plants have died, 0% = like control plants)) of 100%, a pest or weed control at 20 g/ha (ABUTH [1]; Abutilon theophrasti, 504 h, dosage 20 g/ha, scored visually after 3 weeks vs untreated controls, 100% = plants have died, 0% = like control plants, read-out: Pre-emergence action against ABUTH (herbicidal activity in percent)) of 90% and a pest or weed control at 80 g/ha (ALOMY [2]; Alopecurus myosuroides, 504 h, 80 g/ha, scored visually after 3 weeks vs untreated controls (100% = plants have died, 0% = like control plants)) of 100%. It also gave a pest or weed control at 20 g/ha (ALOMY [2]; Alopecurus myosuroides, 504 h, 20 g/ha, scored visually after 3 weeks, 100% = plants have died, 0% = like control plants) of 90%, a pest or weed control at 20 g/ha (AMARE [3]; Amaranthus retroflexus, 504 h, 20 g/ha, scored visually after 3 weeks vs untreated controls, 100% = plants have died, 0% = like control plants) of 100% and a pest or weed control at 80 g/ha (AMARE [3]; Amaranthus retroflexus, 504 h, 80 g/ha, scored visually after 3 weeks vs untreated controls, 100% = plants have died, 0% = like control plants) of 100%. For the same compound, the pest or weed control at 80 g/ha (AVEFA; Avena fatua, 504 h) was 100%, the pest or weed control at 20 g/ha (ECHCG [4]; Echinochloa crus-galli, 504 h, 20 g/ha) was 90% and the pest or weed control at 80 g/ha (ECHCG [4]; Echinochloa crus-galli, 504 h, 80 g/ha) was 100%. For the same compound, the pest or weed control at 80 g/ha (LOLRI; Lolium rigidum, 504 h) was 80%, the pest or weed control at 20 g/ha (MATIN [5]; [22]) was 100% and the pest or weed control at 80 g/ha (MATIN [5]; Tripleurospermum inodorum, 504 h, dosage 80 g/ha) was 100%. It also gave a pest or weed control at 80 g/ha (PHBPU [6]; Ipomoea purpurea, 504 h) of 80%, a pest or weed control at 20 g/ha (POLCO; Fallopia convolvulus, 504 h, dosage 20 g/ha) of 100% and a pest or weed control at 80 g/ha (POLCO; Fallopia convolvulus, 504 h, dosage 80 g/ha) of 100%. It also gave a pest or weed control at 20 g/ha (SETVI [7]; [23]) of 80%, a pest or weed control at 80 g/ha (SETVI [7]; Setaria viridis, 504 h, dosage 80 g/ha) of 100% and a pest or weed control at 20 g/ha (VERPE [8]; Veronica persica, 504 h, dosage 20 g/ha) of 80%. It also gave a pest or weed control at 80 g/ha (VERPE [8]; Veronica persica, 504 h, dosage 80 g/ha) of 100%, a pest or weed control at 20 g/ha (VIOTR [9]; Viola tricolor, 504 h, dosage 20 g/ha) of 100% and a pest or weed control at 80 g/ha (VIOTR [9]; Viola tricolor, 504 h, dosage 80 g/ha) of 100%. It also gave a pest or weed control at 80 g/ha (DIGSA [10]; Digitaria sanguinalis, 504 h, dosage 80 g/ha) of 90%, a pest or weed control at 5 g/ha (ABUTH [11]; Abutilon theophrasti, 504 h, dosage 5 g/ha) of 90% and a pest or weed control at 20 g/ha (ABUTH [11]; Abutilon theophrasti, 504 h, dosage 20 g/ha) of 90%. The pest or weed control at 5 g/ha (ALOMY [19]; dosage 5 g/ha) was 80%, the pest or weed control at 20 g/ha (ALOMY [19]; dosage 20 g/ha) was 90% and the pest or weed control at 20 g/ha (AMARE [12]; Amaranthus retroflexus, 504 h) was 90%. The pest or weed control at 20 g/ha (ECHCG [13]; Echinochloa crus-galli, 504 h) was 90%, the pest or weed control at 5 g/ha (MATIN [14]; Tripleurospermum inodorum, 504 h, dosage 5 g/ha) was 80% and the pest or weed control at 20 g/ha (MATIN [14]; [22]) was 80%. For the same compound, the pest or weed control at 5 g/ha (PHBPU [15]; Ipomoea purpurea, 504 h, dosage 5 g/ha) was 80%, the pest or weed control at 20 g/ha (PHBPU [15]; Ipomoea purpurea, 504 h, dosage 20 g/ha) was 90% and the pest or weed control at 5 g/ha (SETVI [16]; Setaria viridis, 504 h, dosage 5 g/ha) was 90%. It also gave a pest or weed control at 20 g/ha (SETVI [16]; [23]) of 90%, a pest or weed control at 5 g/ha (VERPE [20]; 5 g/ha) of 80% and a pest or weed control at 20 g/ha (VERPE [20]; 20 g/ha) of 90%. It also gave a pest or weed control at 20 g/ha (VIOTR [17]; Viola tricolor, 504 h, 20 g/ha) of 80%, a pest or weed control at 5 g/ha (DIGSA [18]; Digitaria sanguinalis, 504 h, 5 g/ha) of 90% and a pest or weed control at 20 g/ha (DIGSA [18]; Digitaria sanguinalis, 504 h, 20 g/ha) of 90%.
